In PubChem BioAssay (NCI):
“And” between values parts separate entries of the source, which are not always exact repeats. Identical values can stand only once.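 Where inhibition never reached the appropriate level, the endpoint shown equals the highest concentration tested. Otherwise, values were interpolated linearly from a five-concentration, 48-hour dose response in 96-well plates. Abbreviation: GI50, concentration required for 50% inhibition of growth. TGI marks complete inhibition of growth.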

Experiments:
Assay in all cases: NCI anticancer screen, dose series, 48 h
[1] = test system: BT-549 breast
[2] = test system: NCI-H226 lung
[3] = test system: SK-OV-3 ovarian
[4] = test system: TK-10 renal
[5] = test system: SF-539 CNS
[6] = test system: HCC-2998 colon
[7] = test system: ACHN renal
[8] = test system: SK-MEL-5 melanoma
[9] = test system: CCRF-CEM leukemia
[10] = test system: M14 melanoma

Row | SMILES | GI50 [1] [µM] | TGI [1] [µM] | GI50 [2] | TGI [2] [µM] | GI50 [3] | TGI [3] [µM] | GI50 [4] [µM] | TGI [4] [µM] | GI50 [5] [µM] | TGI [5] [µM] | GI50 [6] | TGI [6] [µM] | GI50 [7] [µM] | TGI [7] [µM] | GI50 [8] [µM] | TGI [8] [µM] | GI50 [9] [µM] | TGI [9] [µM] | GI50 [10] | TGI [10] [µM]
1 | c1ccc(OCC[P+](c2ccccc2)(c2ccccc2)c2ccccc2)cc1 | 1.65 | 12 | 2.03 µM | 12.1 | 2.08 µM | 8.16 | 1.73 | 14.5 | 1.89 | 13.1 | 0.702 µM | 12.9 | 8.47 | > 81.9 | 0.416 | 1.56 | 0.981 | > 41.4 | 1.57 µM | 9.59
2 | O=C(Nc1n[nH]c2cc(-c3ccc(F)cc3)ccc12)C1CC1 | 12.4 | > 25 | 9.29 µM | > 25 | 6.24 µM | 20.3 | > 20.8 | > 25 | 11.2 | > 25 | 8.27 µM | > 25 | 16.8 | > 25 | 5.56 | > 18.1 | 8.77 | > 25 | 8.6 µM | > 25
3 | COc1cc(N2CCN(C(C)C)CC2)ccc1Nc1nc(Nc2ccc(F)cc2C(N)=O)c2cc[nH]c2n1 | 3.28 | 6.93 | 1.11 µM | 6.65 | 0.317 µM | 3.03 | 0.17 | 4.68 | 2.76 | 6.33 | 0.558 µM | 5.63 | 0.502 | 5.2 | 0.747 | 5.28 | 0.277 | 21.3 | 0.18 µM | 4.07
4 | C=C1CC2(CC(c3ccccc3C)OC(c3ccccc3C)C2)OC1=O (stereo not drawn) |  | 4.09 |  | 18.7 |  | 24.2 |  | 4.14 |  | 3.1 |  | 5.82 |  | 6.06 |  | 3.97 |  | 5.75 |  | 3.02
5 | Cc1cc(S(=O)(=O)Nc2nc3ccccc3s2)c(SCc2ccccc2)cc1Cl | 20.9 | 60.5 | 19.3 µM | 45.9 | 32.4 µM | 98.4 | 14.1 | 44.7 | 16.5 | 32.7 | 13.8 µM | 26.7 | 14 | 27.8 | 12.5 | 25 | 13.1 | 51.3 | 19.2 µM | 36.6
6 | CC(=O)OCc1cc[c]([Hg][Cl])o1 | 6.43 | 19.3 | 19.4 µM | 45.5 | 22.5 µM | 53.6 | 2.72 | 5.89 | 4.97 | 21.2 | 15.4 µM | 29.2 | 1.81 | 3.44 | 4.38 | 15.9 | 2.08 | 8.85 | 3.11 µM | 13
7 | C#Cc1cccc(NC(=O)C2CCCCN2C(=O)CCl)c1 (stereo not drawn) | 12.5 | 27.2 | 52.1 µM | > 82.5 | > 82.5 µM | > 82.5 | 15.6 | 33.6 | 17.4 | 49.4 | 28.6 µM | > 82.5 | 13.1 | 24.5 | 9.54 | 41.2 | 3.99 | 50.1 | 18.8 µM | 74.9
8 | O=C(C#Cc1ccccc1)N1CCCCC1 |  | > 100 |  | > 100 |  | > 100 |  | > 100 |  | > 100 |  | > 100 |  | > 100 |  | > 100 |  | > 100 |  | > 100
9 | CN1CCN(CCCn2c3c(sc4ncccc43)c(=O)n3nnc(-c4ccccc4)c23)CC1 | 14.7 | 30.6 | 15.1 µM | 31.9 | 18.4 µM | 33.3 | 3.15 | 10.7 | 1.71 | 3.33 | 5.12 µM | 9.97 | 1.54 | 3.04 | 1.65 | 3.05 | 1.57 | 4.08 | 4.67 µM | 9.5
10 | Cc1cc(C(=O)NOCCO)c(Nc2ccc(I)cc2F)n(C)c1=O | > 100 | > 100 | > 10 µM and 5.83 µM | > 100 | > 10 µM and 51.6 µM | > 100 |  | > 100 | > 38.5 | > 100 | 0.00297 µM and < 0.01 µM | > 6.94 |  | > 100 | < 0.01 | > 100 | > 100 | > 100 | 0.00159 µM and < 0.01 µM | 2.89
11 | COc1cc2cc(C(=O)Nc3ccccc3)c(N)nc2cc1OC | 25.1 | > 100 | 54.4 µM | > 100 | > 100 µM | > 100 | 63.5 | > 100 | 71.6 | > 100 | 94.4 µM | > 100 | 39.4 | > 100 | 22.8 | 88.8 | 35.9 | > 100 | 33.1 µM | > 100
12 | COc1ccc(/C=C2\CCC(C)(CN(C)C)C2=O)cc1Br (stereo not drawn) |  | 45.4 |  | 56.1 |  | 70.5 |  | 44 |  | 43.5 |  | 35.8 |  | > 62.6 |  | 28.3 |  | > 80.5 |  | 35.1
13 | O=C(Nc1c(Cl)cccc1Cl)Oc1cccc2cccnc12 | 8.85 | 90 | 4.57 µM | 21.7 | 4.62 µM | 39.4 | 8.98 | > 100 | 4.57 | 19 | 5.82 µM | 24.6 | 3.87 | > 100 | 3.39 | 12.3 | 2.29 | 23.2 | 4.03 µM | 20.2
